Experimental data: patent US6504058B1 (priority 1997, dated 2003)

Legend:
[1] = test system: Erysiphe graminis f. sp. tritici; test: Test A: wheat powdery mildew, preventive spray on wheat seedlings, disease rating; format: in vivo, Erysiphe graminis f. sp. tritici (on wheat seedlings); conditions: 200 ppm test suspension sprayed to run-off (equivalent to 500 g/ha) on wheat seedlings; 100 = 100% disease control, 0 = no control; # = significant activity
From the text: (§1) Test compounds were first dissolved in acetone in an amount equal to 3% of the final volume and then suspended at a concentration of 200 ppm in purified water containing 250 ppm of the surfactant Trem® 014 (polyhydric alcohol esters). The resulting test suspensions were then used in the following test. Spraying these 200 ppm test suspensions to the point of run-off on the test plants is the equivalent of a rate of 500 g/ha.
The test suspension was sprayed to the point of run-off on wheat seedlings. The following day the seedlings were inoculated with a spore dust of Erysiphe graminis f. sp. tritici, (the causal agent of wheat powdery mildew) and incubated in a growth chamber at 20° C. for 7 days, after which disease ratings were made.
(§2) Results for Tests A-E are given in Table A. In the table, a rating of 100 indicates 100% disease control and a rating of 0 indicates no disease control (relative to the controls). A dash (-) indicates no test results. ND indicates disease control not determined due to phytotoxicity. # indicates significant activity.

Puccinia recondita = test: Test B: wheat leaf rust, preventive spray on wheat seedlings, disease rating; format: in vivo, Puccinia recondita (on wheat seedlings); conditions: 200 ppm test suspension sprayed to run-off (equivalent to 500 g/ha) on wheat seedlings; 100 = 100% disease control, 0 = no control; # = significant activity
From the text: as §1
The test suspension was sprayed to the point of run-off on wheat seedlings. The following day the seedlings were inoculated with a spore suspension of Puccinia recondita (the causal agent of wheat leaf rust) and incubated in a saturated atmosphere at 20° C. for 24 h, and then moved to a growth chamber at 20° C. for 6 days, after which disease ratings were made.
as §2

Pyricularia oryzae = format: in vivo, Pyricularia oryzae (on rice seedlings); conditions: 200 ppm test suspension sprayed to run-off (equivalent to 500 g/ha) on rice seedlings; 100 = 100% disease control, 0 = no control; # = significant activity
Phytophthora infestans = format: in vivo, Phytophthora infestans (on tomato seedlings); conditions: 200 ppm test suspension sprayed to run-off (equivalent to 500 g/ha) on tomato seedlings; 100 = 100% disease control, 0 = no control; # = significant activity
Botrytis cinerea = test: Test E: gray mold, preventive spray on cucumber seedlings, disease rating; format: in vivo, Botrytis cinerea (on cucumber seedlings); conditions: 200 ppm test suspension sprayed to run-off (equivalent to 500 g/ha) on cucumber seedlings; 100 = 100% disease control, 0 = no control; # = significant activity
From the text: as §1
The test suspension was sprayed to the point of run-off on cucumber seedlings. The following day the seedlings were inoculated with a spore suspension of Botrytis cinerea (the causal agent of gray mold on many crops) and incubated in a saturated atmosphere at 20° C. for 48 h, and moved to a growth chamber at 20° C. for 5 days, after which disease ratings were made.
as §2

SMILES: CC(NC(=O)C1(C)CC(C)(Cl)C1)c1ccc(Cl)cc1Cl (stereo not drawn) [compound 20]
- Test A disease control rating (wheat powdery mildew) [1]: 59%
- Test B disease control rating (wheat leaf rust) (Puccinia recondita): 0 (a rating of 0 indicates no disease control (relative to the controls))
- Test C disease control rating (rice blast) (Pyricularia oryzae): 100# (a rating of 100 indicates 100% disease control)
- Test D disease control rating (potato and tomato late blight) (Phytophthora infestans): 0 (a rating of 0 indicates no disease control (relative to the controls))
- Test E disease control rating (gray mold) (Botrytis cinerea): 0 (a rating of 0 indicates no disease control (relative to the controls))

SMILES: CC(NC(=O)C1(C)CC(C)(Cl)C1)c1cccc2ccccc12 (stereo not drawn) [compound 21]
- Test A disease control rating (wheat powdery mildew) [1]: 0 (a rating of 0 indicates no disease control (relative to the controls))
- Test B disease control rating (wheat leaf rust) (Puccinia recondita): 0 (a rating of 0 indicates no disease control (relative to the controls))
- Test C disease control rating (rice blast) (Pyricularia oryzae): 0 (a rating of 0 indicates no disease control (relative to the controls))
- Test D disease control rating (potato and tomato late blight) (Phytophthora infestans): 0 (a rating of 0 indicates no disease control (relative to the controls))
- Test E disease control rating (gray mold) (Botrytis cinerea): 0 (a rating of 0 indicates no disease control (relative to the controls))

SMILES: CC(NC(=O)C1(C)CC(C)(Cl)C1)c1cccc2ccccc12 (stereo not drawn) [compound 22]
- Test A disease control rating (wheat powdery mildew) [1]: 0 (a rating of 0 indicates no disease control (relative to the controls))
- Test B disease control rating (wheat leaf rust) (Puccinia recondita): 0 (a rating of 0 indicates no disease control (relative to the controls))
- Test C disease control rating (rice blast) (Pyricularia oryzae): 0 (a rating of 0 indicates no disease control (relative to the controls))
- Test D disease control rating (potato and tomato late blight) (Phytophthora infestans): 0 (a rating of 0 indicates no disease control (relative to the controls))
- Test E disease control rating (gray mold) (Botrytis cinerea): 0 (a rating of 0 indicates no disease control (relative to the controls))

SMILES: CC(NC(=O)C1(C)CC(C)(Cl)C1)c1ccc2ccccc2c1 (stereo not drawn) [compound 23]
- Test A disease control rating (wheat powdery mildew) [1]: 0 (a rating of 0 indicates no disease control (relative to the controls))
- Test B disease control rating (wheat leaf rust) (Puccinia recondita): 0 (a rating of 0 indicates no disease control (relative to the controls))
- Test C disease control rating (rice blast) (Pyricularia oryzae): 97# %
- Test D disease control rating (potato and tomato late blight) (Phytophthora infestans): 0 (a rating of 0 indicates no disease control (relative to the controls))
- Test E disease control rating (gray mold) (Botrytis cinerea): 0 (a rating of 0 indicates no disease control (relative to the controls))

SMILES: CC(NC(=O)C1(C)CC(C)(Cl)C1)c1ccc2ccccc2c1 (stereo not drawn) [compound 24]
- Test A disease control rating (wheat powdery mildew) [1]: 0 (a rating of 0 indicates no disease control (relative to the controls))
- Test B disease control rating (wheat leaf rust) (Puccinia recondita): 0 (a rating of 0 indicates no disease control (relative to the controls))
- Test C disease control rating (rice blast) (Pyricularia oryzae): 100# (a rating of 100 indicates 100% disease control)
- Test D disease control rating (potato and tomato late blight) (Phytophthora infestans): 0 (a rating of 0 indicates no disease control (relative to the controls))
- Test E disease control rating (gray mold) (Botrytis cinerea): 0 (a rating of 0 indicates no disease control (relative to the controls))

SMILES: CC(COc1cc(F)ccc1F)NC(=O)C1(C(F)(F)F)CC(C)(Cl)C1 (stereo not drawn) [compound 27]
- Test A disease control rating (wheat powdery mildew) [1]: 72%
- Test B disease control rating (wheat leaf rust) (Puccinia recondita): 0 (a rating of 0 indicates no disease control (relative to the controls))
- Test C disease control rating (rice blast) (Pyricularia oryzae): 99# %
- Test D disease control rating (potato and tomato late blight) (Phytophthora infestans): 14%
- Test E disease control rating (gray mold) (Botrytis cinerea): 0 (a rating of 0 indicates no disease control (relative to the controls))
